# ChEMBL document CHEMBL1250509, “Rose Bengal analogs and vesicular glutamate transporters (VGLUTs)” (Bioorg Med Chem, 2010)
# pIC50, pKi: −log10 of the molar value.
# Legend:
# [1] = Inhibition of VGLUT in rat synaptic vesicles assessed as [3H]glutamate uptake pretreated for 30 mins measured after 10 mins by scintillation spectrophotometer analysis
# [2] = Inhibition of VGLUT
# [3] = Inhibition of VGLUT in rat synaptic vesicles assessed as [3H]glutamate uptake at 2.5 uM pretreated for 30 mins measured after 10 mins by scintillation spectrophotometer analysis
# [4] = Inhibition of VMAT in rat synaptic vesicles assessed as [3H]HT uptake pretreated for 30 mins measured after 10 mins by scintillation spectrophotometer analysis
# [5] = target: T1, Vesicular acetylcholine transporter (Rattus norvegicus, UniProt Q62666); experiment: Inhibition of VACHT in rat synaptic vesicles assessed as […] 30 mins measured after 10 mins by scintillation spectrophotometer analysis
# T1 sequence (Q62666 whole entry): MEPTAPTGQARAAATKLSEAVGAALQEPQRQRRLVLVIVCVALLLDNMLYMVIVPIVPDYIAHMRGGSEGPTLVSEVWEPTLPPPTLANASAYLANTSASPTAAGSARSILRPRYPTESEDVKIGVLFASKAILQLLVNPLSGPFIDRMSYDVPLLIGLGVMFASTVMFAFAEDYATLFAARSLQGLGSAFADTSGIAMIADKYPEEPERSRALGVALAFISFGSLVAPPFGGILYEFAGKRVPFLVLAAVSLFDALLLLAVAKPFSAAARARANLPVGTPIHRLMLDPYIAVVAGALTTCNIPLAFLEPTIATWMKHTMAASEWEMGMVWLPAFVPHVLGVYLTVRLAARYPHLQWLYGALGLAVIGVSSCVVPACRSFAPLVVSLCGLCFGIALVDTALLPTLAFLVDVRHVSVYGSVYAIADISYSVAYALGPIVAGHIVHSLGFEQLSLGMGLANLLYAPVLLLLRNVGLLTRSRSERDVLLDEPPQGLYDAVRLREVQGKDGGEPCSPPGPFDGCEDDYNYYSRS
pIC50 [1],SMILES,also measured
7.17,O=c1c(I)cc2c(-c3cc(Cl)c(Cl)c(Cl)c3Cl)c3cc(I)c(O)c(I)c3oc-2c1I [DESCARBOXY RB],–
7.44,O=C(O)c1ccccc1-c1c2cc(I)c(=O)c(I)c-2oc2c(I)c(O)c(I)cc12,–
5.11,O=C(O)c1c(O)cccc1-c1c2cc(I)c(=O)c(I)c-2oc2c(I)c(O)c(I)cc12,–
6.93,COC(=O)c1ccccc1-c1c2cc(Br)c(=O)c(Br)c-2oc2c(Br)c(O)c(Br)cc12,–
7.57,O=C(O)c1c(Cl)ccc(Cl)c1-c1c2cc(I)c(=O)c(I)c-2oc2c(I)c(O)c(I)cc12,–
< 4.19,O=C(O)c1ccccc1-c1c2cc(Cl)c(=O)cc-2oc2cc(O)c(Cl)cc12,–
6.62,COC(=O)c1ccccc1-c1c2cc([N+](=O)[O-])c(=O)c(Br)c-2oc2c(Br)c(O)c([N+](=O)[O-])cc12,–
6.99,O=C(O)c1c(F)c(F)c(F)c(F)c1-c1c2cc(I)c(=O)c(I)c-2oc2c(I)c(O)c(I)cc12,–
< 4.49,O=c1ccc2c(-c3ccccc3S(=O)(=O)O)c3ccc(O)c(O)c3oc-2c1O [PYROGALLOL RED],–
7.13,O=C(O)c1c(Br)c(Br)c(Br)c(Br)c1-c1c2cc(I)c(=O)c(I)c-2oc2c(I)c(O)c(I)cc12,–
–,N[C@]1(C(=O)O)CC[C@@H](C(=O)O)C1,pIC50 [2]: 3.64
6.27,Cc1c2oc3c(C)c(O)c(I)cc3c(-c3ccccc3C(=O)O)c-2cc(I)c1=O,–
–,O=C(O)c1c(Cl)c(Cl)c(Cl)c(Cl)c1-c1c2c3ccccc3c(=O)cc-2oc2cc(O)c3ccccc3c12,IC50 [3]: Not Active
7.19,O=C(OCc1ccccc1)c1c(Cl)c(Cl)c(Cl)c(Cl)c1-c1c2cc(I)c(=O)c(I)c-2oc2c(I)c(O)c(I)cc12,–
5.05,COc1c(I)cc2c(c1I)Oc1c(cc(I)c(OC)c1I)C21OC(=O)c2c(Cl)c(Cl)c(Cl)c(Cl)c21,–
7.36,COC(=O)c1c(Cl)c(Cl)c(Cl)c(Cl)c1-c1c2cc(I)c(=O)c(I)c-2oc2c(I)c(O)c(I)cc12,–
–,O=C1OC2(c3ccc(O)cc3Oc3cc(O)ccc32)c2ccccc21 [FLUORESCEIN],IC50 [3]: Not Active
6.16,N#CSc1ccc(C(=O)O)c(-c2c3cc(I)c(=O)c(I)c-3oc3c(I)c(O)c(I)cc23)c1,–
–,O=C(O)c1c(Cl)c(Cl)c(Cl)c(Cl)c1-c1c2ccc(=O)cc-2oc2cc(O)c3ccccc3c12,IC50 [3]: Not Active
7.72,O=C(O)c1c(Cl)c(Cl)c(Cl)c(Cl)c1-c1c2cc(I)c(=O)c(I)c-2oc2c(I)c(O)c(I)cc12 [ROSE BENGAL SODIUM],pIC50 [4]: 7.19; pIC50 [5]: 5.01; pKi [2]: 7.72
5.97,O=C(O)c1ccccc1-c1c2ccc(=O)c(I)c-2oc2c(I)c(O)ccc12,–
6.72,CCOC(=O)c1c(Cl)c(Cl)c(Cl)c(Cl)c1-c1c2cc(I)c(=O)c(I)c-2oc2c(I)c(O)c(I)cc12,–
5.61,O=C(O)c1ccccc1-c1c2cc([N+](=O)[O-])c(=O)c(Br)c-2oc2c(Br)c(O)c([N+](=O)[O-])cc12 [EOSIN B],–
7.39,O=C(O)c1cc(Cl)c(Cl)cc1-c1c2cc(I)c(=O)c(I)c-2oc2c(I)c(O)c(I)cc12,–
4.82,O=C(O)c1c(Cl)c(Cl)c(Cl)c(Cl)c1-c1c2ccc(=O)cc-2oc2cc(O)ccc12,–
5.17,O=C(O)c1cccc([N+](=O)[O-])c1-c1c2cc(I)c(=O)c(I)c-2oc2c(I)c(O)c(I)cc12,–
7.19,CCOC(=O)c1ccccc1-c1c2cc(Br)c(=O)c(Br)c-2oc2c(Br)c(O)c(Br)cc12,–
5.66,O=C(O)CCc1c2cc(I)c(=O)c(I)c-2oc2c(I)c(O)c(I)cc12,–
–,O=C(O)c1cc(C(=O)O)c2cc(-c3ccc(-c4ccccc4)cc3)cc(O)c2n1 [QUINOLEIN DICARBOXYLIC ACID],pIC50 [2]: 4.40

SMILES,pIC50 [1],also measured
O=C(O)c1ccccc1-c1c2cc(Br)c(=O)c(Br)c-2oc2c(Br)c(O)c(Br)cc12,6.39,–
O=C(O)c1c(Cl)c(Cl)c(Cl)c(Cl)c1-c1c2cc(Br)c(=O)c(Br)c-2oc2c(Br)c(O)c(Br)cc12,7.29,–
